One series concerns A498. The experiment in a line: Cytotoxicity against human A498 cells. To be noted: for EC50: Homo sapiens, A498, read-out: ED50 (the source's name). In kind it is functional.
A further series relates to A549. The experiment in a line: Cytotoxicity against human A549 cells. It is filed as functional. As to conditions: for EC50: Homo sapiens, A549, read-out: ED50 (the source's name).
A further series has as its system HT-29. Briefly: Cytotoxicity against human HT29 cells. It is filed as functional. To be noted: read-out: ED50 (the source's name).
For a further series, the system named is MCF7. Briefly: Cytotoxicity against human MCF7 cells. In kind it is functional. To be noted: read-out: ED50 (the source's name).
Series [1] can be described thus: Cytotoxicity against human PC3 cells. As to conditions: read-out: ED50 (the source's name). It is filed as cell-based, PC-3.
Series [2] is described as follows: (§1) Toxicity in Artemia salina. To be noted: in vivo. It is filed as organism-based.
For another series, the system named is MIA PaCa-2. The experiment in a line: Cytotoxicity against human MIAPaCa2 cells. In kind it is functional. To be noted: for EC50: Homo sapiens, MIA PaCa-2, read-out: ED50 (the source's name).
In the next series the test system is Artemia salina. The series is described as §1. As to conditions: in vivo. In kind it is organism-based.

In brackets after ≈: the same amount, converted by molar mass.

Take `CCCCCCCCCC[C@@H](O)[C@@H]1CC[C@@H]([C@@H]2CC[C@@H]([C@H](O)CCCCCCCCCC(O)CC3=CC(C)OC3=O)O2)O1` (stereo not given in full) [BULLATACIN]: the ED50 in the series on A498 came out at 4.85 ×10⁻⁵ ug/ml; with A549, 2.44 ×10⁻⁶ ug/ml. Also, the values for the EC50 in the series on HT-29 and in the series on MCF7 were more than 1000 ng/mL and 696 ng/mL (≈ 1140 nM), respectively.

Regarding `CCCCCCCCCC[C@H](O)[C@H]1CC[C@H]([C@H]2CC[C@H]([C@H](O)CCCCCCCCCC[C@@H](O)CC3=C[C@H](C)OC3=O)O2)O1` [BULLATACIN], the CC50 in series [1] stood at 1e-06 ng/mL (≈ 1.61e-06 nM). In addition, the LC50 in series [2] was determined as 1.59 ng/mL (≈ 2.55 nM).

In the case of `COc1cccc2c1C(=O)c1c(O)c3c(c(O)c1C2=O)C[C@@](O)(C(=O)CO)C[C@@H]3O[C@H]1C[C@H](N)[C@H](O)[C@H](C)O1` [DOXORUBICIN], the EC50 in the series on A498 amounted to 24.9 ng/mL (≈ 45.8 nM); in the series with A549, 28.4 ng/mL (≈ 52.3 nM); in the series with HT-29, 41.6 ng/mL (≈ 76.5 nM); in the series on MCF7, 347 ng/mL (≈ 638 nM); with MIA PaCa-2 it was 3.17 ng/mL (≈ 5.83 nM). Also, the CC50 in series [1] turned out to be 342 ng/mL (≈ 629 nM). This molecule yielded an LC50 in series [2] of 257 ng/mL (≈ 473 nM).

For the molecule `CCCCCCCCCC[C@H](O)[C@H]1CC[C@H]([C@H]2CC[C@H]([C@H](O)CCCCCCCC[C@@H](O)CC3=C[C@H](C)OC3=O)O2)O1` [MOLVIZARIN], the EC50 in the series with A498 was 709 ng/mL (≈ 1190 nM); in the series on A549, 63 ng/mL (≈ 106 nM); in the series on HT-29, 7.32 ng/mL (≈ 12.3 nM); in the series on MCF7, more than 1000 ng/mL; with MIA PaCa-2 it was 7.66 ng/mL (≈ 12.9 nM). In addition, in the series on Artemia salina, the LC50 was 5.26 ×10⁻² ug/ml.

`CCCCCCCCCCCC[C@H](O)[C@H]1CC[C@H]([C@H]2CC[C@H]([C@H](O)CCCCCCCC[C@@H](O)CC3=C[C@H](C)OC3=O)O2)O1` [SQUAMOTACIN]: the EC50 in the series with A498 was more than 1000 ng/mL; with A549, 27.7 ng/mL (≈ 44.5 nM); in the series on HT-29 it was 1 ng/mL (≈ 1.61 nM); in the series with MCF7, more than 1000 ng/mL. This molecule displayed an ED50 in the series on MIA PaCa-2 of 1.33 ×10⁻⁴ ug/ml. In series [2], this molecule gave an LC50 of 6.8 ng/mL (≈ 10.9 nM).

Values taken from ChEMBL document CHEMBL1158212, “Squamotacin: an annonaceous acetogenin with cytotoxic selectivity for the human prostate tumor cell line (PC-3)” (J Nat Prod, 1996).
